Experimental data reported in patent publication US20070218086A1, “Adjuvant Composition and Methods for Its Use” (priority 2004, published 2007).
pEC50: −log10 of the molar value.

Columns and labels:
[1] = test system: IFNγ, TNF-alpha, IL2, IL4, IL5 and IL6; assay type: in vivo, monkeys
[2] = test system: primary polyclonal human Vγ9/Vδ2 T cells; assay: TNFα release assay (cytokine release assay); assay type: cell-based; details: T-cell, 24 h, read-out: in vitro EC50
Description: Cells (primary polyclonal human Vγ9/Vδ2 T cells which had been expanded in vitro and stored frozen at day 12-15 of expansion) are thawed and rinsed them twice and centrifuged. Upon elimination of supernatant and resuspension of cells, cells are incubated for 24h at 37° C. in the presence of IL2 100 UI/ml (fmal concentration). Cells are washed and centrifuged, following which the supernatant is eliminated and the cells are resuspended and adjusted to the adequate final concentration. Cells are added to the wells of a 96-well plate.
To one row of wells are added a standard diluation series of 3-(bromomethyl)-3-butanol-1-yl-diphosphate (BrHPP). Compounds to be tested, in this case CHDMAPP and HDMAPP are added to experimental wells, after several dilutions.
Full plates are incubated 24 hours at 37° C. for stimulation of the γδ cells with the BrHPP standard as well as isopentenyl pyrophosphate (IPP) for comparison, and test compounds CHDMAPP and HDMAPP. After this time, 100 μl of culture supernatant is taken for TNFα dosage. Measurement of the released TNFa dosageis performed as described by the manufacturer's instruction in the TNFa enzyme immunoassay kit (ref. 11121, Immunotech-Beckman Coulter). OD at 405 nm is read, the OD being proportional to the concentration of released TNFα in the culture supernatant. The data are processed with the Excel software to compare concentration of test compound versus concentration of TNFα and for the calculation of the EC50 for each test compound.

Vγ9/Vδ2+ T cell = assay: in vitro Vγ9/Vδ2+ T cell stimulation; assay type: cell-based
γδ T cells = assay: in vivo Vγ9/Vδ2+ T cell stimulation in cynomolgus monkeys

With `C/C(=C\CCP(=O)(O)OP(=O)(O)O)CO` [CHDMAPP, (E)-5-hydroxy-4-methylpent-3-enyl pyrophosphonate] the “cytokine production (IFNγ) over that observed with the phosphoantigen alone” value ([1]; cytokines known to be induced by phosphoantigen alone (IFNγ)) was “large increase of cytokine production”, the “cytokine production over that observed with the Hybrid-I formulation alone” value ([1]; serum cytokines, 8 monkeys per group, FIG. 3) was “large and statistically significant increase in cytokine production” and the pEC50 [2] was about 9.06.
`C/C(=C\COP(=O)(O)OP(=O)(O)O)CO` [HDMAPP, (E)-4-Hydroxy-3-methylbut-2-enyl diphosphate] was tested, and the pEC50 (Vγ9/Vδ2+ T cell) was about 9.22, the pEC50 (γδ T cells; Macaca fascicularis, T-cell, in cynomolgus monkeys, dosage studies described in co-pending PCT/IB2003/006375) was about 11.30 and the “activation of γδ T cells” value (γδ T cells; administration to cynomolgus monkeys, very low doses) was “strong activation of γδ T cells”. It also gave a pEC50 [2] of about 9.12.
With `C=C(C)CCO[P@@](=O)(O)OP(=O)(O)O` [IPP, isopentenyl pyrophosphate, reference compound] the pEC50 [2] was about 4.51.
`CC(O)(CBr)CCOP(=O)(O)OP(=O)(O)O` (stereo not drawn) [BrHPP, 3-(bromomethyl)-3-butanol-1-yl-diphosphate, reference compound] showed a pEC50 [2] of about 7.73.
